Target: T1, human somatostatin receptor subtype 2 (Homo sapiens, UniProt P30874)
T1 construct: expressed in transfected cells; host or cells: CHO (Chinese hamster ovary) cells, cultured under G-418 selection
Experiment: cAMP assay (inhibition of cAMP activities via sst2 receptor)
Format: cell-based
Details: CHO cells expressing the human somatostatin receptor subtype 2, forskolin
Text: General overview: All five SSTR subtypes are Gi coupled G-protein coupled receptors (GPCRs) that lead to decreases in intracellular cyclic AMP (cAMP) when activated by an agonist. Therefore, measurement of intracellular cAMP levels can be used to assess whether compounds of the invention are agonists of SSTR subtypes (John Kelly, Troy Stevens, W. Joseph Thompson, and Roland Seifert, Current Protocols in Pharmacology, 2005,2.2.1-2.2). One example of an intracellular cAMP assay is described below.
One day prior to the assay, 40,000 Chinese hamster ovary (CHO) cells expressing the human somatostatin receptor subtype 2 are plated in each well of a 96-well tissue culture plate in DM-MEM growth media (Gibco) with the following additives: 10% fetal bovine serum (Gibco), 100 U/mL penicillin (Gibco), 100 ug/mL streptomycin (Gibco), 10 mM HEPES (Gibco), 1.2 mM sodium hydroxide, 0.5 mg/mL G-418 (Gibco)). The cells are cultured overnight at 37° C., 5% CO2 and 95% humidity. On the day of the assay, the media is aspirated and the cells are washed with 1X Dulbecco's phosphate buffered saline (Gibco). Next, 5 μL of assay buffer (1× Earle's Balanced Salt Solution (Gibco), 5 mM MgCl2, 10 mM HEPES, 0.1% bovine serum albumin, 0.2 mM 3-Isobutyl-1-methylxanthine (IBMX, Biomol Research Labs)) and forskolin is added. Various dilutions of the compounds of the invention are prepared in assay buffer and 5 μL of the dilutions are added to the cultured cells and incubated for 15 minutes at 37° C. (the final concentration of the compounds of the invention are typically 0-10,000 nM). 10 μL of lysis buffer (HRTF cAMP kit, Cisbio) containing cAMP detection and visualization antibodies are added and the assay is allowed incubate for 1-24 hours at room temperature. The intracellular cAMP concentrations are then measured using a commercially available detection kit (for example, the cAMP HTRF kit, Cisbio). The measured intracellular cAMP concentrations are plotted vs. the concentration of the compounds of the invention and the EC50 of the compounds are calculated using standard methods.

T1 sequence (P30874 whole entry): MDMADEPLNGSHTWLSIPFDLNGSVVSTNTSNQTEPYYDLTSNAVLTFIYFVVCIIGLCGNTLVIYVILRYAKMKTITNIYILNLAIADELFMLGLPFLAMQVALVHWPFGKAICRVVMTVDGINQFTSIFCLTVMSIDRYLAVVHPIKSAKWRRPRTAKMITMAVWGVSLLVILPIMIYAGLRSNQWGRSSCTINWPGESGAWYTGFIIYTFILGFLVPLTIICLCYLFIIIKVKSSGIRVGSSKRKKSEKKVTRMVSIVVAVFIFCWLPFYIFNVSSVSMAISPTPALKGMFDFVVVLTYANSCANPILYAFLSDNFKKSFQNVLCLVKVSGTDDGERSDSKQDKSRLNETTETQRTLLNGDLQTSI

Structure (SMILES)	EC50 [nM]
Cc1cc(Cl)cc(-c2cnc3ccc(-c4cccc(O)c4)cc3c2C(=O)N(C)C[C@H]2CCCN2)c1 (single isomer, unassigned) [Compound 1-5]	39
Cc1cc(Cl)cc(-c2cnc3ccc(-c4cccc(O)c4)cc3c2C(=O)N(C)C[C@@H]2CCCN2)c1 [Compound 1-1, 3-(3-chloro-5-methylphenyl)-6-(3-hydroxyphenyl)-N-methyl-N-[(2S) -pyrrolidin-2-ylmethyl]quinoline-4-carboxamide]	0.12
CC[C@H](N)CN(C)C(=O)c1c(-c2cc(C)cc(Cl)c2)cnc2ccc(-c3cc(O)cc(C(N)=O)c3)cc12 [Compound 1-8, N-[(25)-2-aminobutyl]-6-(3-carbamoyl-5-hydroxyphenyl)-3-(3-chloro-5-methylphenyl)-N-methylquinoline-4-carboxamide]	100 to 1000
CN(C)C(=O)c1cccc(-c2cnc3ccc(-c4cccc(O)c4)cc3c2C(=O)N(C)C[C@@H]2CCCN2)c1 [Compound 1-73, 3-[3-(dimethylcarbamoyl)phenyl]-6-(3-hydroxyphenyl)-N-methyl-N-[(2S)-pyrrolidin-2-ylmethyl]quinoline-4-carboxamide]	100 to 1000
Cc1cc(Cl)cc(-c2cnc3ccc(-c4cccc(O)c4)nc3c2C(=O)N(C)C[C@@H]2CCCN2)c1 [Compound 2-1, 3-(3-chloro-5-methylphenyl)-6-(3-hydroxyphenyl)-N-methyl-N-[(2S) -pyrrolidin-2-ylmethyl]-1,5-naphthyridine-4-carboxamide]	< 100
CN(C[C@@H]1CCCN1)C(=O)c1c(-c2cccc(O)c2)cnc2ccc(-c3cccc(O)c3)nc12 [Compound 2-2, 3,6-bis(3-hydroxyphenyl)-N-methyl-N-[(2S)-pyrrolidin-2-ylmethyl]-1,5-naphthyridine-4-carboxamide]	100 to 1000
Cc1cc(Cl)cc(-c2cnc3ccc(-c4cc(O)ccc4F)nc3c2C(=O)N(C)C[C@@H]2CCCN2)c1 [Compound 2-3, 3-(3-chloro-5-methylphenyl)-6-(2-fluoro-5-hydroxyphenyl)-N-methyl-N-[(2S)-pyrrolidin-2-ylmethyl]-1,5-naphthyridine-4-carboxamide]	< 100
Cc1cc(Cl)cc(-c2cnc3ccc(-c4cc(O)cc(C#N)c4)nc3c2C(=O)N(C)C[C@@H]2CCCN2)c1 [Compound 2-4, 3-(3-chloro-5-methylphenyl)-6-(3-cyano-5-hydroxyphenyl)-N-methyl-N-[(2S)-pyrrolidin-2-ylmethyl]-1,5-naphthyridine-4-carboxamide]	100 to 1000
CC[C@H](N)CN(C)C(=O)c1c(-c2cc(C)cc(C)c2)cnc2ccc(-c3cc(O)cc(C#N)c3)nc12 [Compound 2-5, N-[(2S)-2-aminobutyl]-6-(3-cyano-5-hydroxyphenyl)-3-(3,5-dimethylphenyl)-N-methyl-1,5-naphthyridine-4-carboxamide]	< 100
CC[C@H](N)CN(C)C(=O)c1c(-c2cc(C)cc(Cl)c2)cnc2ccc(-c3cc(O)cc(C#N)c3)nc12 [Compound 2-6, N-[(2S)-2-aminobutyl]-3-(3-chloro-5-methylphenyl)-6-(3-cyano-5-hydroxyphenyl)-N -methyl-1,5-naphthyridine-4-carboxamide]	< 100
CC[C@H](N)CN(C)C(=O)c1c(-c2cc(C)cc(F)c2)cnc2ccc(-c3cc(O)cc(C#N)c3)nc12 [Compound 2-7, N-[(2S)-2-aminobutyl]-6-(3-cyano-5-hydroxyphenyl)-3-(3-fluoro-5-methylphenyl)-N -methyl-1,5-naphthyridine-4-carboxamide]	< 100
CN(C[C@@H]1CCCN1)C(=O)c1c(-c2cccc(-n3cccn3)c2)cnc2ccc(-c3cccc(O)c3)nc12 [Compound 2-8, 6-(3-hydroxyphenyl)-N-methyl-3-[3-(1H-pyrazol-1-yl)phenyl]-N-[(2S)-pyrrolidin-2-ylmethyl]-1,5-naphthyridine-4-carboxamide]	100 to 1000
CN(C[C@@H]1CCCN1)C(=O)c1c(-c2cccc(C#N)c2)cnc2ccc(-c3cc(F)cc(C#N)c3)nc12 [Compound 2-15, 6-(3-cyano-5-fluorophenyl)-3-(3-cyanophenyl)-N-methyl-N-[(2S)-pyrrolidin-2-ylmethyl]-1,5-naphthyridine-4-carboxamide]	100 to 1000
CN(CC1CCCN1)C(=O)c1c(-c2cccc(CC(=O)O)c2)cnc2ccc(-c3cccc(O)c3)nc12 (stereo not shown) [Compound 2-20, 2-{3-[6-(3-hydroxyphenyl)-4-[methyl(pyrrolidin-2-ylmethyl)carbamoyl]-1,5-naphthyridin-3-yl]phenyl}acetic acid]	100 to 1000
COC(=O)Cc1cccc(-c2cnc3ccc(-c4cccc(O)c4)nc3c2C(=O)N(C)C[C@@H]2CCCN2)c1 [Compound 2-21, methyl 2-{3-[6-(3-hydroxyphenyl)-4-{methyl[(2S)-pyrrolidin-2-ylmethyl]carbamoyl}-1,5-naphthyridin-3-yl]phenyl}acetate]	100 to 1000
CN(C[C@@H]1CCCN1)C(=O)c1c(-c2cccc(CCC(=O)O)c2)cnc2ccc(-c3cccc(O)c3)nc12 [Compound 2-22, 3-{3-[6-(3-hydroxyphenyl)-4-{methyl[(2S)-pyrrolidin-2-ylmethyl]carbamoyl}-1,5-naphthyridin-3-yl]phenyl}propanoic acid]	100 to 1000
CN(C[C@@H]1CCCN1)C(=O)c1ccnc2ccc(-c3cccc(O)c3)nc12 [Compound 3-1, 6-(3-hydroxyphenyl)-N-methyl-N-[(2S)-pyrrolidin-2-ylmethyl]-1,5-naphthyridine-4-carboxamide]	< 100
Cc1cc(F)cc(-c2cnc3ccc(N4CCCC4)nc3c2C(=O)N(C)C[C@@H]2CCCN2)c1 [Compound 3-2, 3-(3-fluoro-5-methylphenyl)-N-methyl-6-(pyrrolidin-1-yl)-N-[(2S)-pyrrolidin-2-ylmethyl]-1,5-naphthyridine-4-carboxamide]	100 to 1000
Cc1cc(F)cc(-c2cnc3ccc(N4CCCC(O)C4)nc3c2C(=O)N(C)C[C@@H]2CCCN2)c1 (stereo partly shown) [Compound 3-3]	100 to 1000
CN(C[C@@H]1CCCN1)C(=O)c1c(N2CCCC2)cnc2ccc(-c3cccc(O)c3)nc12 [Compound 3-4, 6-(3-hydroxyphenyl)-N-methyl-3-(pyrrolidin-1-yl)-N-[(2S)-pyrrolidin-2-ylmethyl]-1,5-naphthyridine-4-carboxamide]	< 100
Cc1cccc(-c2cnc3ccc(-c4cccc(O)c4)nc3c2C(=O)N(C)C[C@@H]2CCCN2)n1 [Compound 3-5, 6-(3-hydroxyphenyl)-N-methyl-3-(6-methylpyridin-2-yl)-N-[(2S)-pyrrolidin-2-ylmethyl]-1,5-naphthyridine-4-carboxamide]	100 to 1000
CC1CN(c2cnc3ccc(-c4cccc(O)c4)nc3c2C(=O)N(C)C[C@@H]2CCCN2)CC(C)O1 (stereo partly drawn) [Compound 3-6, 3-(2,6-dimethylmorpholin-4-yl)-6-(3-hydroxyphenyl)-N-methyl-N-[(2S)-pyrrolidin-2-ylmethyl]-1,5-naphthyridine-4-carboxamide]	< 100
CC#Cc1cnc2ccc(-c3cc(F)cc(C#N)c3)nc2c1C(=O)N(C)C[C@@H]1CCCN1 [Compound 3-7, 6-(3-cyano-5-fluorophenyl)-N-methyl-3-(prop-1-yn-1-yl)-N-[(2S)-pyrrolidin-2-ylmethyl]-1,5-naphthyridine-4-carboxamide]	100 to 1000
Cc1cc(F)cc(-c2cnc3ccc(-c4cncc(C#N)c4)cc3c2C(=O)N(C)C[C@@H]2CCCN2)c1 [Compound 3-8, 6-(5-cyanopyridin-3-yl)-3-(3-fluoro-5-methylphenyl)-N-methyl-N-[(2S)-pyrrolidin-2-ylmethyl]quinoline-4-carboxamide]	< 100
CN(C[C@@H]1CCCN1)C(=O)c1c(C2=CCCC2)cnc2ccc(-c3cc(F)cc(C#N)c3)nc12 [Compound 3-9, 6-(3-cyano-5-fluorophenyl)-3-(cyclopent-1-en-1-yl)-N-methyl-N-[(2S)-pyrrolidin-2-ylmethyl]-1,5-naphthyridine-4-carboxamide]	< 100
Cc1cc(F)cc(-c2cnc3ccc(-c4cnn(C)c4)cc3c2C(=O)N(C)C[C@@H]2CCCN2)c1 [Compound 3-10, 3-(3-fluoro-5-methylphenyl)-N-methyl-6-(1-methyl-1H-pyrazol-4-yl)-N-[(2S)-pyrrolidin-2-ylmethyl]quinoline-4-carboxamide]	100 to 1000
CN(C[C@@H]1CCCN1)C(=O)c1c(N2CCCCC2)cnc2ccc(-c3cccc(O)c3)nc12 [Compound 3-11, 6-(3-hydroxyphenyl)-N-methyl-3-(piperidin-1-yl)-N-[(2S)-pyrroldin-2-ylmethyl]-1,5-naphthyridine-4-carboxamide]	100 to 1000
CN(C[C@@H]1CCCN1)C(=O)c1c(N2CCOCC2)cnc2ccc(-c3cccc(O)c3)nc12 [Compound 3-12, 6-(3-hydroxyphenyl)-N-methyl-3-(morpholin-4-yl)-N-[(2S)-pyrrolidin-2-ylmethyl]-1,5-naphthyridine-4-carboxamide]	100 to 1000

From patent US11028068B2, “Somatostatin modulators and uses thereof” (Crinetics Pharmaceuticals, Inc., priority 2017, dated 2021)
